Source: the PolyMetriX glass transition set
± gives the standard deviation of the reports.

Question: With `*CCCC(*)C` (repeat unit) as the molecule, how does the glass transition temperature read?
Answer: -52.60 °C

Question: With `*CC1(*)CC(=O)N(c2ccccc2)C1=O` (repeat unit) as the molecule, how does the glass transition temperature read?
Answer: 236.00 °C

Question: Which glass transition temperature does the source give for `*CCN(*)C(=O)CCC(=O)OC` (repeat unit) here?
Answer: 31.00 °C

Question: With `*c1ccc(Cc2ccc(N3C(=O)c4ccc([Si](C)(C)O[Si](C)(C)O[Si](C)(C)c5ccc6c(c5)C(=O)N(*)C6=O)cc4C3=O)cc2)cc1` (repeat unit) as the molecule, how does the glass transition temperature read?
Answer: 220.00 °C

Question: With `*NC(C)CCC(C)(C)CCCNC(=O)c1ccc(C(*)=O)cc1` (repeat unit) as the molecule, how does the glass transition temperature read?
Answer: 150.00 °C

Question: With `*c1ccc(Cc2ccc(N3C(=O)c4ccc(S(=O)(=O)c5ccc6c(c5)C(=O)N(*)C6=O)cc4C3=O)c(C(C)(C)C)c2)cc1C(C)(C)C` (repeat unit) as the molecule, how does the glass transition temperature read?
Answer: 336.00 °C

Question: For `*Oc1ccc(NC(=O)CCCCC(=O)Nc2ccc(*)cc2)cc1` (repeat unit), which glass transition temperature is on record?
Answer: 230.00 °C

Question: For `*CC(*)C1=NCCN1` (repeat unit), which glass transition temperature is on record?
Answer: -48.3 °C

Question: Which glass transition temperature does the source give for `*c1ccc(Oc2ccc(C(=O)c3cccc(C(=O)c4ccc(Oc5ccc(-c6nc(-c7ccc(-c8nc(*)c(-c9ccccc9)[nH]8)cc7)[nH]c6-c6ccccc6)cc5)cc4)c3)cc2)cc1` (repeat unit) here?
Answer: 270.00 °C

Question: With `*CCCNC(=O)C(NC(=O)C(Cc1ccccc1)NC(=O)CCCCCCCCC(=O)NC(Cc1ccccc1)C(=O)NC(C(=O)NCCCOCCOCCO*)C(C)C)C(C)C` (repeat unit) as the molecule, how does the glass transition temperature read?
Answer: 66.00 °C

Question: Which glass transition temperature does the source give for `*C1C(=O)N(c2ccc(O[Si](CC)(CC)CC)cc2)C(=O)C1*` (repeat unit) here?
Answer: 165.00 °C

Question: For `*CC(*)OC(=O)/C=C/c1ccccc1` (repeat unit), which glass transition temperature is on record?
Answer: 127.00 °C

Question: For `*c1cccc(OCCCCCCOc2cccc(N3C(=O)c4ccc(-c5cccc6c5C(=O)N(*)C6=O)cc4C3=O)c2)c1` (repeat unit), which glass transition temperature is on record?
Answer: 157.00 °C

Question: For `*c1ccc(-c2ccc(Oc3ccc(C4(C)CC(C)(C)c5ccc(Oc6ccc(-c7ccc(N8C(=O)c9ccc(Oc%10ccc(C(C)(C)c%11ccc(Oc%12ccc%13c(c%12)C(=O)N(*)C%13=O)cc%11)cc%10)cc9C8=O)cc7)cc6C(F)(F)F)cc54)cc3)c(C(F)(F)F)c2)cc1` (repeat unit), which glass transition temperature is on record?
Answer: 241.00 °C

Question: With `*/C=C/c1cccc(/C=C/[Si](C)(C)c2cccc([Si](*)(C)C)c2)c1` (repeat unit) as the molecule, how does the glass transition temperature read?
Answer: 28.70 °C

Question: Which glass transition temperature does the source give for `*C(=O)c1ccc2c(c1)C(=O)N(c1c(C(C)C)cc(Cc3cc(C(C)C)c(N4C(=O)c5ccc(*)cc5C4=O)c(C(C)C)c3)cc1C(C)C)C2=O` (repeat unit) here?
Answer: 263.00 °C

Question: Which glass transition temperature does the source give for `*CC(*)(C)C(=O)Nc1cccc(-c2nnc(-c3ccccc3)o2)c1` (repeat unit) here?
Answer: 65.00 °C

Question: With `*CCOc1ccc(/C=C2\CC/C(=C\c3ccc(OCCOP(=O)(O*)OC)c(OC)c3)C2=O)cc1OC` (repeat unit) as the molecule, how does the glass transition temperature read?
Answer: 99.00 °C

Question: With `*Oc1cc(OC(=O)c2ccc(OCC)cc2)c(OC(=O)CCCC(*)=O)cc1OC(=O)c1ccc(OCC)cc1` (repeat unit) as the molecule, how does the glass transition temperature read?
Answer: 71.00 °C

Question: Which glass transition temperature does the source give for `*Oc1cc(CC)cc(OC(=O)c2cccc(C(*)=O)c2)c1` (repeat unit) here?
Answer: 138.00 °C

Question: Which glass transition temperature does the source give for `*c1ccc2c(c1)C(CCCCCC)(CCCCCC)c1cc(-c3cc(OCc4ccccc4)c(*)cc3OCc3ccccc3)ccc1-2` (repeat unit) here?
Answer: 73.00 °C

Question: Which glass transition temperature does the source give for `*CCOc1ccc(OC(=O)c2ccc(C(=O)Oc3ccc(O*)cc3)c(OCCCCC)c2)cc1` (repeat unit) here?
Answer: 95.00 °C

Question: For `*c1ccc(Oc2ccc(C(=O)c3cccc(C(=O)c4ccc(Oc5ccc(-c6c7c(c(*)c8ccccc68)C(=O)N(C)C7=O)cc5)cc4)c3)cc2)cc1` (repeat unit), which glass transition temperature is on record?
Answer: 251.00 °C

Question: For `*CCOC(=O)NCCCCCCNC(=O)O*` (repeat unit), which glass transition temperature is on record?
Answer: 56.00 °C

Question: With `*CCC(C)O*` (repeat unit) as the molecule, how does the glass transition temperature read?
Answer: -50.00 °C

Question: Which glass transition temperature does the source give for `*c1ccc(-c2sc(-c3ccc(-c4cc(SCCCC)c(*)s4)cc3)cc2SCCCC)cc1` (repeat unit) here?
Answer: 26.40 °C

Question: With `*CC(*)CCCCCCCCCCCCCC` (repeat unit) as the molecule, how does the glass transition temperature read?
Answer: -24.00 °C

Question: With `*O[Si](*)(C)CCCCC1COC(=O)O1` (repeat unit) as the molecule, how does the glass transition temperature read?
Answer: -23.4 °C

Question: Which glass transition temperature does the source give for `*CC(*)(C)C(=O)OCCF` (repeat unit) here?
Answer: 90.00 °C

Question: For `*Oc1ccc(C2(c3ccc(OC(=O)c4cccc(C(*)=O)c4)cc3)CCCCC2)cc1` (repeat unit), which glass transition temperature is on record?
Answer: 127.00 °C

Question: With `*CC(*)C(=O)OCCCCCCOc1ccc(/C=N/c2ccc(OCCCCC)cc2)c(O)c1` (repeat unit) as the molecule, how does the glass transition temperature read?
Answer: 41.00 °C

Question: For `*c1ccc(Sc2ccc(Sc3ccc(Sc4ccc(-n5c(=O)c6cc7c(=O)n(*)c(=O)c7cc6c5=O)cc4)cc3)cc2)cc1` (repeat unit), which glass transition temperature is on record?
Answer: 234.1 °C

Question: For `*CC(*)c1cccc2c1OCO2` (repeat unit), which glass transition temperature is on record?
Answer: 119.00 °C

Question: For `*c1ccc(Sc2ccc(Sc3ccc(N4C(=O)c5ccc(Sc6ccc(Sc7ccc(Sc8ccc9c(c8)C(=O)N(*)C9=O)cc7)cc6)cc5C4=O)cc3)cc2)cc1` (repeat unit), which glass transition temperature is on record?
Answer: 190.8 °C

Question: Which glass transition temperature does the source give for `*C(=O)c1ccc(Oc2c(C)cc(-c3cc(C)c(Oc4ccc(C(=O)c5ccc6nc(*)ccc6c5)cc4)c(C)c3C)c(C)c2C)cc1` (repeat unit) here?
Answer: 250.00 °C

Question: For `*CNC(=O)OC(c1ccco1)C(OC(=O)NCc1ccc(C(C)(C)c2ccc(*)o2)o1)c1ccco1` (repeat unit), which glass transition temperature is on record?
Answer: 45.00 °C

Question: For `*Oc1cc(OC(=O)c2ccc(OCCCC)cc2)c(OC(=O)C(C)CCC(*)=O)cc1OC(=O)c1ccc(OCCCC)cc1` (repeat unit), which glass transition temperature is on record?
Answer: 55.00 °C

Question: For `*Oc1ccc2c(c1)C1(CC2(C)C)CC(C)(C)c2ccc(OC(=O)c3cccc(C(*)=O)c3)cc21` (repeat unit), which glass transition temperature is on record?
Answer: 245.00 °C

Question: Which glass transition temperature does the source give for `*OP(=O)(Oc1ccc(Br)cc1)Oc1ccc(S(=O)(=O)c2ccc(*)cc2)cc1` (repeat unit) here?
Answer: 89.00 °C

Question: With `*C(=O)c1ccc2c(c1)C(=O)N(c1cc(/C=N/C(=S)Nc3ccc(N4C(=O)c5ccc(*)cc5C4=O)cc3)ccc1Cl)C2=O` (repeat unit) as the molecule, how does the glass transition temperature read?
Answer: 274.00 °C

Question: For `*CCCCOC(=O)NNC(=O)CCCCCCCCC(=O)NNC(=O)O*` (repeat unit), which glass transition temperature is on record?
Answer: 56.00 °C

Question: Which glass transition temperature does the source give for `*OC1C(C)(C)C(OC(=O)c2ccc(C(*)=O)cc2)C1(C)C` (repeat unit) here?
Answer: 184.00 °C

Question: For `*CC(COCCCC)O*` (repeat unit), which glass transition temperature is on record?
Answer: -79.00 °C

Question: With `*CCCCCCNC(=O)c1cc(NC(=O)c2ccc(NC(=O)C(CC(C)C)N3C(=O)c4ccccc4C3=O)cc2)cc(C(=O)N*)c1` (repeat unit) as the molecule, how does the glass transition temperature read?
Answer: 200.00 °C

Question: Which glass transition temperature does the source give for `*Oc1c(C)cc(C2(c3cc(C)c(Oc4ccc(C(=O)c5ccc(*)cc5)cc4)c(C)c3)CCC3CCCCC3C2)cc1C` (repeat unit) here?
Answer: 251.00 °C

Question: Which glass transition temperature does the source give for `*O[Si](C)(C)O[Si](C)(C)C#Cc1ccc(C#C[Si](*)(C)C)cc1` (repeat unit) here?
Answer: 104.00 °C

Question: With `*CC(*)C(=O)Oc1cccc(N(C)C)c1` (repeat unit) as the molecule, how does the glass transition temperature read?
Answer: 47.00 °C

Question: Which glass transition temperature does the source give for `*c1ccc(Oc2ccc(C(=O)c3ccc(Oc4ccc(C(=O)c5ccc(Oc6ccc(-c7cc(*)n(-c8ccccc8)n7)cc6)cc5)cc4)cc3)cc2)cc1` (repeat unit) here?
Answer: 190.00 °C

Question: Which glass transition temperature does the source give for `*c1ccc(Oc2ccc(-c3csc(/N=C/c4ccc(OCCCCCCOc5ccc(/C=N/c6nc(*)cs6)cc5)cc4)n3)cc2)cc1` (repeat unit) here?
Answer: 117.00 °C

Question: For `*c1ccc(-c2ccc(-c3cc(-c4ccc(Oc5ccc(-c6cc(*)nc7ccccc67)cc5)cc4)c4ccccc4n3)cc2)cc1` (repeat unit), which glass transition temperature is on record?
Answer: 326.00 °C

Question: For `*Oc1ccc(S(=O)(=O)c2ccc(Oc3ccc(C(c4ccc(*)cc4)c4ccccc4C(=O)O)cc3)cc2)cc1` (repeat unit), which glass transition temperature is on record?
Answer: 223.00 °C

Question: For `*CCN(*)C(=O)CSC` (repeat unit), which glass transition temperature is on record?
Answer: 39.00 °C

Question: With `*CC(*)(C)C(=O)OCCCCCCCCCCOc1ccc(OC(=O)c2ccc(OCCCC)cc2)cc1` (repeat unit) as the molecule, how does the glass transition temperature read?
Answer: 31.00 °C

Question: For `*c1ccc(-c2ccc(-n3c(-c4ccc(Oc5ccc(C(=O)c6ccc(Oc7ccc(C(=O)c8ccc(Oc9ccc(-c%10nc%11ccccc%11n%10*)cc9)cc8)cc7)cc6)cc5)cc4)nc4ccccc43)cc2)cc1` (repeat unit), which glass transition temperature is on record?
Answer: 243.00 °C

Question: Which glass transition temperature does the source give for `*c1cc(C(=O)OCCCC)cc(N2C(=O)CC(C3Cc4ccccc4C4C(=O)N(*)C(=O)C43)C2=O)c1` (repeat unit) here?
Answer: 219.00 °C

Question: For `*CC(*)(C)C(=O)Oc1ccccc1` (repeat unit), which glass transition temperature is on record?
Answer: 110.00 °C

Question: With `*c1ccc2c(c1)C(=O)N(c1ccc(C(C)(C)c3ccc(N4C(=O)c5ccc(C(*)(C(F)(F)F)C(F)(F)F)cc5C4=O)cc3)cc1)C2=O` (repeat unit) as the molecule, how does the glass transition temperature read?
Answer: 310.00 °C

Question: For `*CCCCCOC(=O)OCCCCCN1C(=O)c2ccc(C(=O)c3ccc4c(c3)C(=O)N(*)C4=O)cc2C1=O` (repeat unit), which glass transition temperature is on record?
Answer: 77.00 °C

Question: With `*c1ccc(Oc2ccc(N3C(=O)c4cc(-c5ccc(C(C)(C)C)cc5)c(-c5cc6c(cc5-c5ccc(C(C)(C)C)cc5)C(=O)N(*)C6=O)cc4C3=O)cc2)cc1` (repeat unit) as the molecule, how does the glass transition temperature read?
Answer: 370.00 °C

Question: For `*Oc1ccc(OC(=O)c2ccc(C(*)=O)cc2Oc2ccc(Oc3ccccc3)cc2)cc1` (repeat unit), which glass transition temperature is on record?
Answer: 83.00 °C

Question: Which glass transition temperature does the source give for `*CC(CCCCCCOc1ccc(/N=N/c2ccc(C(F)(F)F)cc2)cc1)COC(=O)CCCCC(=O)O*` (repeat unit) here?
Answer: 44.00 °C

Question: With `*CC1CCC(COC(=O)CCC(=O)O*)CC1` (repeat unit) as the molecule, how does the glass transition temperature read?
Answer: -1.00 °C

Question: With `*c1ccc(Sc2ccc(Oc3ccc(Sc4ccc(N5C(=O)c6ccc(Oc7ccc(C(C)(C)c8ccc(Oc9ccc%10c(c9)C(=O)N(*)C%10=O)cc8)cc7)cc6C5=O)cc4)cc3)cc2)cc1` (repeat unit) as the molecule, how does the glass transition temperature read?
Answer: 199.00 °C

Question: With `*CC(*)(C)C(=O)OCCCCCCOc1ccc(C(=O)Oc2ccc(OC)cc2)cc1` (repeat unit) as the molecule, how does the glass transition temperature read?
Answer: 46.00 °C

Question: With `*CC(COC(=O)CCCCCCCCCCN1C(=O)C2C3C=CC(C3)C2C1=O)O*` (repeat unit) as the molecule, how does the glass transition temperature read?
Answer: -31.00 °C

Question: For `*c1cccc(Oc2ccc(C(c3ccc(Oc4cccc(-n5c(=O)c6cc7c(=O)n(*)c(=O)c7cc6c5=O)c4)cc3)(C(F)(F)F)C(F)(F)F)cc2)c1` (repeat unit), which glass transition temperature is on record?
Answer: 226.50 ± 12 °C
